ChEMBL document CHEMBL1131512, “A new antitumor agent: methyl sulfonium perchlorate of echinomycin” (Bioorg Med Chem Lett, 1998)
Converted amounts (≈) assume the structure as drawn.

Experiments:
P388 [1] = test: In vitro cytotoxicity against P388 tumor cell lines.; format: functional, cell-based; conditions: Mus musculus
B16 [2] = test: In vitro cytotoxicity against B16 tumor cell lines.; format: functional, cell-based; conditions: Mus musculus
SNU-16 = test: In vitro cytotoxicity against SNU16 tumor cell lines.; format: functional, cell-based; conditions: Homo sapiens
B16 [3] = test: In vivo antitumor activity was determined against B16 tumor cell lines in mice at dose of 0.0625 mg/kg administered intraperitoneally. (p<0.05); format: functional, Mus musculus; conditions: route intraperitoneal
P388 [4] = test: In vivo antitumor activity was determined against P388 tumor cell lines in mice at dose of 0.0625 mg/kg administered intraperitoneally.; format: functional, Mus musculus; conditions: route intraperitoneal
B16 [5] = test: In vivo antitumor activity was determined against B16 tumor cell lines in mice at dose of 0.25 mg/kg administered intraperitoneally. (p<0.05); format: functional, Mus musculus; conditions: route intraperitoneal
B16 [6] = test: In vivo antitumor activity was determined against B16 tumor cell lines in mice at dose of 1 mg/kg administered intraperitoneally. (p<0.05); format: functional, Mus musculus; conditions: route intraperitoneal
B16 [7] = test: In vivo antitumor activity was determined against B16 tumor cell lines in mice at dose of 0.125 mg/kg administered intraperitoneally. (p<0.05); format: functional, Mus musculus; conditions: route intraperitoneal
P388 [8] = test: In vivo antitumor activity was determined against P388 tumor cell lines in mice at dose of 1 mg/kg administered intraperitoneally (p<0.05); format: functional, Mus musculus; conditions: route intraperitoneal
P388 [9] = test: In vivo antitumor activity was determined against P388 tumor cell lines in mice at dose of 0.25 mg/kg administered intraperitoneally. (p<0.05); format: functional, Mus musculus; conditions: route intraperitoneal
P388 [10] = test: In vivo antitumor activity was determined against P388 tumor cell lines in mice at dose of 0.03125 mg/kg administered intraperitoneally.; format: functional, Mus musculus; conditions: route intraperitoneal
B16 [11] = test: In vivo antitumor activity was determined against B16 tumor cell lines in mice at dose of 0.03125 mg/kg administered intraperitoneally.; format: functional, Mus musculus; conditions: route intraperitoneal
P388 [12] = test: In vivo antitumor activity was determined against P388 tumor cell lines in mice at dose of 0.125 mg/kg administered intraperitoneally. (p<0.05); format: functional, Mus musculus; conditions: route intraperitoneal
P388 [13] = test: In vivo antitumor activity was determined against P388 tumor cell lines in mice at dose of 1 mg/kg administered intraperitoneally.; format: functional, Mus musculus; conditions: route intraperitoneal
B16 [14] = test: In vivo antitumor activity was determined against B16 tumor cell lines in mice at dose of 1 mg/kg administered intraperitoneally.; format: functional, Mus musculus; conditions: route intraperitoneal
P388 [15] = test: In vivo antitumor activity was determined against P388 tumor cell lines in mice at dose of 0.25 mg/kg administered intraperitoneally.; format: functional, Mus musculus; conditions: route intraperitoneal
P388 [16] = test: In vivo antitumor activity was determined against P388 tumor cell lines in mice at dose of 0.125 mg/kg administered intraperitoneally.; format: functional, Mus musculus; conditions: route intraperitoneal

SMILES: CSC1[C@H]2C(=O)N(C)[C@@H](C(C)C)C(=O)OC[C@@H](NC(=O)c3cnc4ccccc4n3)C(=O)N[C@@H](C)C(=O)N(C)[C@@H](C[S+]1C)C(=O)N(C)[C@@H](C(C)C)C(=O)OC[C@@H](NC(=O)c1cnc3ccccc3n1)C(=O)N[C@@H](C)C(=O)N2C.[Cl-] (some centres undefined) [listing 1 of 2 here]
- IC50 (P388 [1]): 0.0081 ng/mL
- IC50 (B16 [2]): 0.09 ng/mL
- IC50 (SNU-16): 0.0049 ng/mL

SMILES: CSC1[C@H]2C(=O)N(C)[C@@H](C(C)C)C(=O)OC[C@@H](NC(=O)c3cnc4ccccc4n3)C(=O)N[C@@H](C)C(=O)N(C)[C@@H](C[S+]1C)C(=O)N(C)[C@@H](C(C)C)C(=O)OC[C@@H](NC(=O)c1cnc3ccccc3n1)C(=O)N[C@@H](C)C(=O)N2C.[Cl-] (some centres undefined) [listing 2 of 2 here]
- MST (B16 [3]): 24 days
- MST (P388 [4]): 32 days
- MST (B16 [5]): 26 days
- MST (B16 [6]): 28 days
- MST (B16 [7]): 25 days
- MST (P388 [8]): 35 days
- MST (P388 [9]): 34 days
- MST (P388 [10]): 31 days
- MST (B16 [11]): 23 days
- MST (P388 [12]): 33 days

SMILES: CC(C)[C@H]1C(=O)OC[C@@H](NC(=O)c2cnc3ccccc3n2)C(=O)N[C@@H](C)C(=O)N(C)[C@H]2CSC([S+](C)[O-])[C@@H](C(=O)N1C)N(C)C(=O)[C@H](C)NC(=O)[C@H](NC(=O)c1cnc3ccccc3n1)COC(=O)[C@H](C(C)C)N(C)C2=O (some centres undefined) [listing 1 of 2 here]
- IC50 (P388 [1]): 8.8 ng/mL (≈ 7.88 nM)
- IC50 (B16 [2]): 310 ng/mL (≈ 277 nM)
- IC50 (SNU-16): 540 ng/mL (≈ 483 nM)

SMILES: CC(C)[C@H]1C(=O)OC[C@@H](NC(=O)c2cnc3ccccc3n2)C(=O)N[C@@H](C)C(=O)N(C)[C@H]2CSC([S+](C)[O-])[C@@H](C(=O)N1C)N(C)C(=O)[C@H](C)NC(=O)[C@H](NC(=O)c1cnc3ccccc3n1)COC(=O)[C@H](C(C)C)N(C)C2=O (some centres undefined) [listing 2 of 2 here]
- MST (P388 [13]): 27 days
- MST (B16 [14]): 20 days

SMILES: CC(C)[C@H]1C(=O)OC[C@@H](NC(=O)c2cnc3ccccc3n2)C(=O)N[C@@H](C)C(=O)N(C)[C@H]2C[S+]([O-])C([S+](C)[O-])[C@@H](C(=O)N1C)N(C)C(=O)[C@H](C)NC(=O)[C@H](NC(=O)c1cnc3ccccc3n1)COC(=O)[C@H](C(C)C)N(C)C2=O (some centres undefined) [listing 1 of 2 here]
- IC50 (P388 [1]): 98 ng/mL (≈ 86.5 nM)
- IC50 (B16 [2]): 1700 ng/mL (≈ 1500 nM)
- IC50 (SNU-16): 590 ng/mL (≈ 521 nM)

SMILES: CC(C)[C@H]1C(=O)OC[C@@H](NC(=O)c2cnc3ccccc3n2)C(=O)N[C@@H](C)C(=O)N(C)[C@H]2C[S+]([O-])C([S+](C)[O-])[C@@H](C(=O)N1C)N(C)C(=O)[C@H](C)NC(=O)[C@H](NC(=O)c1cnc3ccccc3n1)COC(=O)[C@H](C(C)C)N(C)C2=O (some centres undefined) [listing 2 of 2 here]
- MST (P388 [13]): 31 days
- MST (B16 [14]): 17 days

SMILES: CC(C)[C@H]1C(=O)OC[C@@H](NC(=O)c2cnc3ccccc3n2)C(=O)N[C@@H](C)C(=O)N(C)[C@H]2CSC(S(C)(=O)=O)[C@@H](C(=O)N1C)N(C)C(=O)[C@H](C)NC(=O)[C@H](NC(=O)c1cnc3ccccc3n1)COC(=O)[C@H](C(C)C)N(C)C2=O (some centres undefined) [listing 1 of 2 here]
- IC50 (P388 [1]): 60 ng/mL (≈ 52.9 nM)
- IC50 (B16 [2]): 820 ng/mL (≈ 724 nM)
- IC50 (SNU-16): 1100 ng/mL (≈ 971 nM)

SMILES: CC(C)[C@H]1C(=O)OC[C@@H](NC(=O)c2cnc3ccccc3n2)C(=O)N[C@@H](C)C(=O)N(C)[C@H]2CSC(S(C)(=O)=O)[C@@H](C(=O)N1C)N(C)C(=O)[C@H](C)NC(=O)[C@H](NC(=O)c1cnc3ccccc3n1)COC(=O)[C@H](C(C)C)N(C)C2=O (some centres undefined) [listing 2 of 2 here]
- MST (P388 [13]): 25 days
- MST (B16 [14]): 17 days

SMILES: COc1cccc2c1C(=O)c1c(O)c3c(c(O)c1C2=O)C[C@@](O)(C(=O)CO)C[C@@H]3O[C@H]1C[C@H](N)[C@H](O)[C@H](C)O1 [DOXORUBICIN]
- IC50 (P388 [1]): 9.6 ng/mL (≈ 17.7 nM)
- IC50 (B16 [2]): 540 ng/mL (≈ 994 nM)
- IC50 (SNU-16): 160 ng/mL (≈ 294 nM)

SMILES: CS[C@H]1SC[C@H]2C(=O)N(C)[C@@H](C(C)C)C(=O)OC[C@@H](NC(=O)c3cnc4ccccc4n3)C(=O)N[C@@H](C)C(=O)N(C)[C@@H]1C(=O)N(C)[C@@H](C(C)C)C(=O)OC[C@@H](NC(=O)c1cnc3ccccc3n1)C(=O)N[C@@H](C)C(=O)N2C [ECHINOMYCIN]
- MST (P388 [13]): 27 days
- MST (B16 [3]): 24 days
- MST (P388 [4]): 32 days
- MST (B16 [5]): 23 days
- MST (P388 [15]): 26 days
- IC50 (P388 [1]): 0.043 ng/mL (≈ 0.039 nM)
- MST (B16 [7]): 25 days
- IC50 (B16 [2]): 6.5e-05 ng/mL (≈ 5.9e-05 nM)
- MST (P388 [16]): 33 days
- MST (B16 [14]): 21 days
- MST (P388 [10]): 31 days
- IC50 (SNU-16): 0.00016 ng/mL (≈ 0.000145 nM)
- MST (B16 [11]): 23 days
